Data from PubChem BioAssay (NCI).
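The concentration for 50% growth inhibition is given as GI50. TGI denotes the concentration required for complete inhibition of growth.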

Legend:
Assay in all cases: NCI tumour cell line growth inhibition, 384-well format
[1] = test system: SNB-75 CNS
[2] = test system: OVCAR-8 ovarian
[3] = test system: MDA-MB-435 melanoma
[4] = test system: HT29 colon
[5] = test system: NCI-H460 NSCLC
[6] = test system: OVCAR-3 ovarian
[7] = test system: PC-3 prostate
[8] = test system: HOP-62 NSCLC
[9] = test system: SK-MEL-28 melanoma
[10] = test system: ACHN renal
[11] = test system: IGROV1 ovarian
[12] = test system: HS 578T breast
[13] = test system: SNB-19 CNS
[14] = test system: OVCAR-4 ovarian
[15] = test system: SF-268 CNS
[16] = test system: CAKI-1 renal
[17] = test system: NCI-H322M lung
[18] = test system: MALME-3M melanoma
[19] = test system: HOP-92 NSCLC
[20] = test system: NCI-H226 lung
[21] = test system: SF-295 CNS
[22] = test system: TK-10 renal
[23] = test system: HCT-116 colon
[24] = test system: SF-539 CNS
[25] = test system: SK-OV-3 ovarian
[26] = test system: HCT-15 colon
[27] = test system: SR leukemia
[28] = test system: NCI/ADR-RES ovarian
[29] = test system: 786-0 renal
[30] = test system: MDA-MB-468 breast
[31] = test system: U251 glioblastoma
[32] = test system: SN12C renal
[33] = test system: MCF7 breast
[34] = test system: HCC-2998 colon
[35] = test system: A549 NSCLC
[36] = test system: EKVX NSCLC
[37] = test system: LOX IMVI melanoma
[38] = test system: UACC-257 melanoma
[39] = test system: BT-549 breast
[40] = test system: NCI-H522 lung
[41] = test system: HL-60(TB) leukemia
[42] = test system: SK-MEL-5 melanoma
[43] = test system: SW-620 colon
[44] = test system: M14 melanoma
[45] = test system: COLO 205 colon
[46] = test system: RXF 393 renal
[47] = test system: KM12 colon
[48] = test system: K-562 leukemia
[49] = test system: RPMI-8226 leukemia
[50] = test system: A498 renal
[51] = test system: T-47D breast
[52] = test system: MOLT-4 leukemia
[53] = test system: UACC-62 melanoma
[54] = test system: DU-145 prostate
[55] = test system: UO-31 renal
[56] = test system: NCI-H23 lung
[57] = test system: MDA-MB-231 breast

Q: With `O=C(C1CC1)N1CC[C@@H](Cc2n[nH]c(=O)n2-c2ccc(-c3ccc4occc4c3)cc2)C1` as the compound, how does the GI50 [1] read?
A: 34.8 µM

Q: And the TGI [1]?
A: > 100 µM

Q: And the GI50 [2]?
A: 36.4 µM

Q: What about the TGI [2] of the same compound?
A: > 100 µM

Q: What about the GI50 [3] of the same compound?
A: 31.2 µM

Q: What about the TGI [3] of the same compound?
A: > 100 µM

Q: What about the GI50 [4] of the same compound?
A: 29.2 µM

Q: What about the TGI [4] of the same compound?
A: > 100 µM

Q: And the GI50 [5]?
A: 29.7 µM

Q: What about the TGI [5] of the same compound?
A: > 100 µM

Q: What about the GI50 [6] of the same compound?
A: 21.6 µM

Q: What about the TGI [6] of the same compound?
A: 59 µM

Q: And the GI50 [7]?
A: 42.9 µM

Q: What about the TGI [7] of the same compound?
A: > 100 µM

Q: And the GI50 [8]?
A: 19.1 µM

Q: And the TGI [8]?
A: 75.7 µM

Q: And the GI50 [9]?
A: 31.1 µM

Q: What about the TGI [9] of the same compound?
A: > 100 µM

Q: And the GI50 [10]?
A: 24.6 µM

Q: And the TGI [10]?
A: > 100 µM

Q: What about the GI50 [11] of the same compound?
A: 34.3 µM

Q: And the TGI [11]?
A: > 100 µM

Q: What about the GI50 [12] of the same compound?
A: 32.5 µM

Q: And the TGI [12]?
A: > 100 µM

Q: What about the GI50 [13] of the same compound?
A: 50.1 µM

Q: What about the TGI [13] of the same compound?
A: > 100 µM

Q: And the GI50 [14]?
A: 33.3 µM

Q: What about the TGI [14] of the same compound?
A: > 100 µM

Q: And the GI50 [15]?
A: 26 µM

Q: What about the TGI [15] of the same compound?
A: > 100 µM

Q: What about the GI50 [16] of the same compound?
A: 32.4 µM

Q: And the TGI [16]?
A: > 100 µM

Q: What about the GI50 [17] of the same compound?
A: 36.2 µM

Q: What about the TGI [17] of the same compound?
A: > 100 µM

Q: What about the GI50 [18] of the same compound?
A: 30.9 µM

Q: What about the TGI [18] of the same compound?
A: 96.6 µM

Q: What about the GI50 [19] of the same compound?
A: 37.5 µM

Q: What about the TGI [19] of the same compound?
A: > 100 µM

Q: And the GI50 [20]?
A: 18.5 µM

Q: And the TGI [20]?
A: 58.8 µM

Q: What about the GI50 [21] of the same compound?
A: 18.1 µM

Q: And the TGI [21]?
A: 57.5 µM

Q: And the GI50 [22]?
A: 21.7 µM

Q: And the TGI [22]?
A: 60.1 µM

Q: What about the GI50 [23] of the same compound?
A: 20.2 µM

Q: What about the TGI [23] of the same compound?
A: 48 µM

Q: And the GI50 [24]?
A: 53.5 µM

Q: What about the TGI [24] of the same compound?
A: > 100 µM

Q: What about the GI50 [25] of the same compound?
A: 33.9 µM

Q: And the TGI [25]?
A: > 100 µM

Q: And the GI50 [26]?
A: 34.3 µM

Q: And the TGI [26]?
A: > 100 µM

Q: What about the GI50 [27] of the same compound?
A: 24.6 µM

Q: And the TGI [27]?
A: 64.4 µM

Q: What about the GI50 [28] of the same compound?
A: 22.3 µM

Q: What about the TGI [28] of the same compound?
A: 85.1 µM

Q: What about the GI50 [29] of the same compound?
A: 25.6 µM

Q: What about the TGI [29] of the same compound?
A: > 100 µM

Q: What about the GI50 [30] of the same compound?
A: 15.5 µM

Q: What about the TGI [30] of the same compound?
A: 45.5 µM

Q: What about the GI50 [31] of the same compound?
A: 28 µM

Q: And the TGI [31]?
A: > 100 µM

Q: What about the GI50 [32] of the same compound?
A: 30 µM

Q: What about the TGI [32] of the same compound?
A: > 100 µM

Q: And the GI50 [33]?
A: 19.9 µM

Q: And the TGI [33]?
A: 92.4 µM

Q: And the GI50 [34]?
A: 25.5 µM

Q: What about the TGI [34] of the same compound?
A: > 100 µM

Q: What about the GI50 [35] of the same compound?
A: 23.4 µM

Q: And the TGI [35]?
A: > 100 µM

Q: What about the GI50 [36] of the same compound?
A: 22.9 µM

Q: What about the TGI [36] of the same compound?
A: > 100 µM

Q: What about the GI50 [37] of the same compound?
A: 16.9 µM

Q: What about the TGI [37] of the same compound?
A: 38.6 µM

Q: And the GI50 [38]?
A: 38.5 µM

Q: What about the TGI [38] of the same compound?
A: 91.3 µM

Q: What about the GI50 [39] of the same compound?
A: 13.3 µM

Q: And the TGI [39]?
A: 72.4 µM

Q: What about the GI50 [40] of the same compound?
A: 25.3 µM

Q: And the TGI [40]?
A: 86.6 µM

Q: And the GI50 [41]?
A: 0.0567 µM

Q: What about the TGI [41] of the same compound?
A: 21.8 µM

Q: And the GI50 [42]?
A: 15.7 µM

Q: And the TGI [42]?
A: 29.6 µM

Q: And the GI50 [43]?
A: 57.6 µM

Q: What about the TGI [43] of the same compound?
A: > 100 µM

Q: And the GI50 [44]?
A: 60.9 µM

Q: What about the TGI [44] of the same compound?
A: > 100 µM

Q: And the GI50 [45]?
A: 42.2 µM

Q: What about the TGI [45] of the same compound?
A: > 100 µM

Q: What about the GI50 [46] of the same compound?
A: 20.9 µM

Q: What about the TGI [46] of the same compound?
A: 59.4 µM

Q: What about the GI50 [47] of the same compound?
A: 39.6 µM

Q: And the TGI [47]?
A: > 100 µM

Q: And the GI50 [48]?
A: 13.5 µM

Q: What about the TGI [48] of the same compound?
A: 27.2 µM

Q: What about the GI50 [49] of the same compound?
A: 0.066 µM

Q: And the TGI [49]?
A: 17.9 µM

Q: What about the GI50 [50] of the same compound?
A: 29.4 µM

Q: And the TGI [50]?
A: > 100 µM

Q: What about the GI50 [51] of the same compound?
A: 29.8 µM

Q: And the TGI [51]?
A: > 100 µM

Q: What about the GI50 [52] of the same compound?
A: 11.5 µM

Q: What about the TGI [52] of the same compound?
A: 23.7 µM

Q: What about the GI50 [53] of the same compound?
A: 34.2 µM

Q: And the TGI [53]?
A: > 100 µM

Q: What about the GI50 [54] of the same compound?
A: 35.3 µM

Q: And the TGI [54]?
A: > 100 µM

Q: What about the GI50 [55] of the same compound?
A: 14.9 µM

Q: And the TGI [55]?
A: > 100 µM

Q: And the GI50 [56]?
A: 29.6 µM

Q: What about the TGI [56] of the same compound?
A: > 100 µM

Q: And the GI50 [57]?
A: 39.6 µM

Q: And the TGI [57]?
A: > 100 µM
